Experimental findings from patent US7585895B2, “Therapeutic substituted cyclopentanes” (Allergan, Inc., priority 2005, dated 2009) are described below.

Molecules are shown by their SMILES. Bounds are passed on as bounds.

In experiment [1] the target is T1, EP4 receptors (Homo sapiens, UniProt P35408).
T1 construct: expressed in transfected cells; membrane pellet
Briefly: Radioligand binding, [3H]PGE2, EP4 (Ki). Particulars: HEK-293 cells stably expressing EP4, [3H]PGE2. As to the method:
HEK-293 cells stably expressing the human or feline FP receptor, or EP1, EP2, or EP4 receptors were washed with TME buffer, scraped from the bottom of the flasks, and homogenized for 30 sec using a Brinkman PT 10/35 polytron. TME buffer was added to achieve a final 40 ml volume in the centrifuge tubes (the composition of TME is 100 mM TRIS base, 20 mM MgCl2, […]; 10N HCl is added to achieve a pH of 7.4).
The cell homogenate was centrifuged at 19000 r.p.m. for 20 min at 4° C using a Beckman Ti-60 rotor. The resultant pellet was resuspended in TME buffer to give a final 1 mg/ml protein concentration, as determined by Biorad assay. Radioligand binding competition assays vs. [^3H-]17-phenyl PGF2α. (5 nM) were performed in a 100 μl volume for 60 min. Binding reactions were started by adding plasma membrane fraction. The reaction was terminated by the addition of 4 ml ice-cold TRIS-HCl buffer and rapid filtration through glass fiber GF/B filters using a Brandel cell harvester. The filters were washed 3 times with ice-cold buffer and oven dried for one hour.
[^3H-] PGE2 (specific activity 180 Ci mmol) was used as the radioligand for EP receptors. [^3H] 17-phenyl PGF2α, was employed for FP receptor binding studies. Binding studies employing EP1, EP2, EP4 and FP receptors were performed in duplicate in at least three separate experiments. A 200 μl assay volume was used. Incubations were for 60 min at 25° C. and were terminated by the addition of 4 ml of ice-cold 50 mM TRIS-HCl, followed by rapid filtration through Whatman GF/B filters and three additional 4 ml washes in a cell harvester (Brandel). Competition studies were performed using a final concentration of 5 nM [^3H]-PGE2, or 5 nM [^3H] 17-phenyl PGF2αand non-specific binding determined with 10^−5M of unlabeled PGE2, or 17-phenyl PGF2α, according to receptor subtype studied.

Experiment [2] addresses T2, hFP (Homo sapiens, UniProt P43088).
T2 construct: expressed in transfected cells
Description: FLIPR calcium signal, FP. To be noted: HEK-293(EBNA). It is filed as cell-based. As for the experimental part: HEK-293(EBNA) cells, stably expressing one type or subtype of recombinant human prostaglandin receptors (prostaglandin receptors expressed: hDP/Gqs5; hEP1; hEP2/Gqs5; hEP3A/Gqi5; hEP4/Gqs5; hFP; hIP; hTP), were cultured in 100 mm culture dishes in high-glucose DMEM medium containing 10% fetal bovine serum, 2 mM 1-glutamine, 250 μg/ml geneticin (G418) and 200 μg/ml hygromycin B as selection markers, and 100 units/ml penicillin G, 100 μg/ml streptomycin and 0.25 μg/ml amphotericin B.
Cells were seeded at a density of 5×10^4 cells per well in Biocoat® Poly-D-lysine-coated black-wall, clear-bottom 96-well plates (Becton-Dickinson) and allowed to attach overnight in an incubator at 37° C. Cells were then washed two times with HBSS-HEPES buffer (Hanks Balanced Salt Solution without bicarbonate and phenol red, 20 mM HEPES, pH 7.4) using a Denley Cellwash plate washer (Labsystems). After 45 minutes of dye-loading in the dark, using the calcium-sensitive dye Fluo-4 AM at a final concentration of 2 μM, plates were washed four times with HBSS-HEPES buffer to remove excess dye leaving 100 μl in each well. Plates were re-equilibrated to 37° C. for a few minutes.
Cells were excited with an Argon laser at 488 nm, and emission was measured through a 510-570 nm bandwidth emission filter (FLIPR™, Molecular Devices, Sunnyvale, Calif.). Drug solution was added in a 50 μl volume to each well to give the desired final concentration. The peak increase in fluorescence intensity was recorded for each well. On each plate, four wells each served as negative (HBSS-HEPES buffer) and positive controls (standard agonists: BW245C (hDP); PGE2 (HEP1; hEP2/Gqs5; hEP3A/Gqi5; hEP4/Gqs5); PGF2α (hFP); carbacyclin (hIP); U-46619 (hTP), depending on receptor). The peak fluorescence change in each drug-containing well was then expressed relative to the controls.
Compounds were tested in a high-throughput (HTS) or concentration-response (CoRe) format. In the HTS format, forty-four compounds per plate were examined in duplicates at a concentration of 10^−5 M. To generate concentration-response curves, four compounds per plate were tested in duplicates in a concentration range between 10^−5 and 10^−11 M. The duplicate values were averaged. In either, HTS or CoRe format each compound was tested on at least 3 separate plates using cells from different passages to give an n≧3.

T1 sequence (P35408 whole entry): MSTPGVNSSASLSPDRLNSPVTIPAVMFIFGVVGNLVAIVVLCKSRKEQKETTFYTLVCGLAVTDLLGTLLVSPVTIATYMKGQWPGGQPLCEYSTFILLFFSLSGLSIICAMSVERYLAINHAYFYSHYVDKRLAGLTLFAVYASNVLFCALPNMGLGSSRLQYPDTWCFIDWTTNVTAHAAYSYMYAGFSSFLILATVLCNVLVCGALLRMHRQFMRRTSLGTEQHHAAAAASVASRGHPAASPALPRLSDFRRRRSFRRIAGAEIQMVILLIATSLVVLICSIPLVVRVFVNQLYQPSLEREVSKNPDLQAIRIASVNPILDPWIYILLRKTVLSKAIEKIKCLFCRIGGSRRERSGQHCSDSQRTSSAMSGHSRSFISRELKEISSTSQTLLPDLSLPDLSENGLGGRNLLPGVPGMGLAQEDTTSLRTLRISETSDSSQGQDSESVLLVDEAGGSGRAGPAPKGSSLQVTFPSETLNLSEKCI
T2 sequence (P43088 whole entry): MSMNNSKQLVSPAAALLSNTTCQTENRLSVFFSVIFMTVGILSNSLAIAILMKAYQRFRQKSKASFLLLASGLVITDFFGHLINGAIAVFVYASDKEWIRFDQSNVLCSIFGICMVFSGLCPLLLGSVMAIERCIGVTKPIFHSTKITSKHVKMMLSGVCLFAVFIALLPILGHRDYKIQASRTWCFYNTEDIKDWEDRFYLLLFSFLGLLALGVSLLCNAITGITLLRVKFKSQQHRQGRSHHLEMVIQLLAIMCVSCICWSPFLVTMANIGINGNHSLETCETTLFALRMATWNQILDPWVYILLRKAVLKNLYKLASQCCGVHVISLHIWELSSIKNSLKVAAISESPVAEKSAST

For `CCCCCC(O)c1ccc([C@@H]2[C@@H](C/C=C\CCCC(=O)O)[C@H](F)C[C@H]2O)cc1` (mixture of isomers) [Entry 8, (Z)-7-{(1R,2S,3R,5R)-5-Fluoro-3-hydroxy-2-[4-(1-hydroxy-hexyl)-phenyl]-cyclopentyl}-hept-5-enoic acid], in experiment [1], the Ki is over 10000 nM. In addition, the “Ca2+ Signal-EC50 (nM) FP” value in experiment [2] was “not active”. Turning to `CCCCCC(O)c1ccc([C@@H]2[C@@H](C/C=C\CCCC(=O)O)[C@H](Cl)C[C@H]2O)cc1` (mixture of isomers) [Entry 11, (Z)-7-{(1R,2S,3R,5R)-5-Chloro-3-hydroxy-2-[4-(1-hydroxy-hexyl)-phenyl]-cyclopentyl}-hept-5-enoic acid], the inhibition constant Ki in experiment [1] was over 10000 nM. Moreover, the “Ca2+ Signal-EC50 (nM) FP” value in experiment [2] is recorded as “not active”. Regarding `O=C(O)CCC/C=C\C[C@@H]1[C@@H](c2ccc(C(O)CC3CCCCC3)cc2)[C@H](O)C[C@H]1Cl` (mixture of isomers) [Entry 17, (Z)-7-{(1R,2S,3R,5R)-5-Chloro-2-[4-(2-cyclohexyl-1-hydroxy-ethyl)-phenyl]-3-hydroxy-cyclopentyl}-hept-5-enoic acid], the Ki in experiment [1] turned out to be 15900 nM. Moreover, the “Ca2+ Signal-EC50 (nM) FP” value in experiment [2] is “not active”. `CC(C)(C)CCCC(O)c1ccc([C@@H]2[C@@H](CCCCCCC(=O)O)[C@H](Cl)C[C@H]2O)cc1` (mixture of isomers) [Entry 20, 7-{(1R,2S,3R,5R)-5-Chloro-3-hydroxy-2-[4-(1-hydroxy-5,5-dimethyl-hexyl)-phenyl]-cyclopentyl}-heptanoic acid] came in with a Ki in experiment [1] of 3800 nM. The “Ca2+ Signal-EC50 (nM) FP” value in experiment [2] is “not active”. For `O=C(O)CCC/C=C\C[C@@H]1[C@@H](c2ccc(C(O)Cc3ccccc3)cc2)[C@H](O)C[C@H]1Cl` (mixture of isomers) [Entry 21, (Z)-7-{(1R,2S,3R,5R)-5-Chloro-3-hydroxy-2-[4-(1-hydroxy-2-phenyl-ethyl)-phenyl]-cyclopentyl}-hept-5-enoic acid], in that order: over 10000 nM and “not active”.

On to `CCCCC(O)c1ccc([C@@H]2[C@@H](C/C=C\CCCC(=O)O)[C@H](Cl)C[C@H]2O)cc1` (mixture of isomers) [Entry 27, (Z)-7-{(1R,2S,3R,5R)-5-Chloro-3-hydroxy-2-[4-(1-hydroxy-pentyl)-phenyl]-cyclopentyl}-hept-5-enoic acid], for which the “Ca2+ Signal-EC50 (nM) FP” value in experiment [2] is recorded as “not active”. `CCCCC(O)C(C)(C)c1ccc([C@@H]2[C@@H](C/C=C\CCCC(=O)O)[C@H](Cl)C[C@H]2O)cc1` (mixture of isomers) [Entry 32, (Z)-7-{(1R,2S,3R,5R)-5-Chloro-3-hydroxy-2-[4-(2-hydroxy-1,1-dimethyl-hexyl)-phenyl]-cyclopentyl}-hept-5-enoic acid] returned a Ki in experiment [1] of 9640 nM. Also, in experiment [2], the “Ca2+ Signal-EC50 (nM) FP” value is “not active”.

Turning to `CCCCCC(O)c1ccc([C@@H]2[C@@H](C/C=C\CCCC(=O)O)[C@H](Cl)C[C@H]2O)cc1` (single isomer, unassigned) [Entry 12], the Ki in experiment [1] is over 10000 nM. In addition, the “Ca2+ Signal-EC50 (nM) FP” value in experiment [2] is recorded as “not active”.

With `CCCCCC(O)c1ccc([C@@H]2[C@@H](C/C=C\CCCC(=O)O)[C@H](Cl)C[C@H]2O)cc1` (single isomer, unassigned) [Entry 13], the Ki in experiment [1] was over 10000 nM. For the same compound, the “Ca2+ Signal-EC50 (nM) FP” value in experiment [2] was “not active”.

Take `CCCCCC(O)c1ccc([C@@H]2[C@@H](CCCc3ncc(C(=O)O)s3)[C@H](Cl)C[C@H]2O)cc1` (stereo partly drawn) [Entry 5, 2-(3-{(1R,2S,3R,5R)-5-Chloro-3-hydroxy-2-[4-(1-hydroxy-hexyl)-phenyl]-cyclopentyl}-propyl)-thiazole-5-carboxylic acid]: the “Ca2+ Signal-EC50 (nM) FP” value in experiment [2] is listed as “not active”. As for `CCCCCC(O)c1ccc([C@@H]2[C@@H](C/C=C\CCCC(=O)O)[C@H](Cl)C[C@@H]2O)cc1` (stereo partly drawn) [Entry 34, (Z)-7-{(1R,2S,3S,5R)-5-Chloro-3-hydroxy-2-[4-(1-hydroxy-hexyl)-phenyl]-cyclopentyl}-hept-5-enoic acid], the “Ca2+ Signal-EC50 (nM) FP” value in experiment [2] was “not active”.
